SMILES strings stand for the structures.

Holding throughout (type): cell-based
For test [1], the system named is human colon cancer cells SW480. As to the kind of experiment: SRB anti-proliferative assay, SW480. The conditions noted are these: SW480, SRB, 48 h, read-out: Anti-proliferative IC50, SW480. The protocol:
(§1) The present example evaluated the anti-tumor activity of the molecules provided by the present invention. The present example mainly used a method with SRB (sulforhodamine B) dying, in which proteins in the cell were stained with SRB dye to determine protein content in the cell so as to characterize cell growth density. Firstly, the test compound was formulated into a stock solution (10 mM), which was stored at 4° C. in a refrigerator. Prior to beginning the assay, the stock solution was diluted with DMSO into a series of different concentrations. The required concentrations were obtained by diluting with complete growth medium. Well growing cells were seeded in a 96-well plate (5000 cells/well, 100 uL) and cultured in an incubator at 37° C., 5% CO2, and 90% RH. 24 h later, the prepared compound solution (100 μL) was slowly added to cell solution in the 96-well plate, and the well with DMSO (final concentration 0.5%) instead of the drug was used as a drug free control. The plate was incubated for 48 h. In addition, a day 0 plate that was drug free was directly detected after cell seeded in the plate for 24 h. The 96-well plate was taken out and added with trichloroacetic acid (50 μL, final concentration 10%). The plate was incubated at 4° C. for 1 h to fix the cells.
(§2) The plate was washed with ultrapure water and air-dried. The plate was then stained with SRB dye (0.4% in 1% acetic acid, 100 μL) for 30 min at room temperature. The plate was then washed with 1% acetic acid and then air-dried. A Tris base solution (100 μL, 10 mM, pH10.4) was added, after which the plate was gently shaken for 1 h on an orbital shaker to ensure that the dyes were completed dissolved. The optical density (OD) was recorded on a TECAN Infinite M200 Pro multimode reader at 515 nm. The cell growth (% of control)=(OD value of wells added with drug−mean OD value of Day 0 plate)/(OD value of DMSO drug-free control well−mean OD value of Day 0 plate)*100.

Test [2] has as its system Paclitaxel-resistant human ovarian carcinoma cell A2780/TAX. As to the kind of experiment: SRB anti-proliferative assay, drug-resistant A2780/TAX. Conditions: paclitaxel-resistant A2780/TAX, SRB, read-out: Anti-proliferative IC50, A2780/TAX. The protocol:
as §1, §2
(§3) We also evaluated the anti-proliferation activities of selected compounds against drug-resistant cancer cell lines.

For test [3], the system named is human nasopharyngeal carcinoma cells CNE2. The experiment in a line: SRB anti-proliferative assay, CNE2. The conditions noted are these: CNE-2, CNE2, SRB, 48 h, read-out: Anti-proliferative IC50, CNE2. On the procedure: as §1, §2
Test [4] relates to human lung cancer cells A549. The experiment in a line: SRB anti-proliferative assay, A549. The conditions noted are these: A549, SRB, 48 h, read-out: Anti-proliferative IC50, A549. On the procedure:
as §1, §2

Test [5] relates to human liver cancer cell HepG2. The experiment in a line: SRB anti-proliferative assay, HepG2. Conditions: HepG2, SRB, 48 h, read-out: Anti-proliferative IC50, HepG2. The protocol:
as §1, §2

The subject of test [6] is incristine resistant human ileocecum carcinoma cell HCT-8/VCT. The experiment in a line: SRB anti-proliferative assay, drug-resistant HCT-8/VCT. Conditions: HCT8/VCT, vincristine-resistant HCT-8/VCT, SRB, read-out: Anti-proliferative IC50, HCT-8/VCT. On the procedure: as §1, §2, §3
Test [7] relates to doxorubicin resistant breast cancer cell MCF-7/DOX. The experiment in a line: SRB anti-proliferative assay, drug-resistant MCF-7/DOX. The conditions noted are these: Homo sapiens, MCF7-DOX; doxorubicin resistant MCF-7/DOX, SRB; read-out: Anti-proliferative IC50, MCF-7/DOX. On the procedure:
as §1, §2, §3

Test [8] concerns human ovary cancer cells A2780. The experiment in a line: SRB anti-proliferative assay, A2780. Conditions: A2780, SRB, 48 h, read-out: Anti-proliferative IC50, A2780. On the procedure: as §1, §2
For test [9], the system named is cis-platinum resistant human lung cancer cell A549/CDDP. As to the kind of experiment: SRB anti-proliferative assay, drug-resistant A549/CDDP. The conditions noted are these: cis-platinum resistant A549/CDDP, SRB, read-out: Anti-proliferative IC50, A549/CDDP. The protocol:
as §1, §2, §3

Test [10] has as its system human breast cancer cells MCF7. As to the kind of experiment: SRB anti-proliferative assay, MCF-7. The conditions noted are these: MCF7, MCF-7, SRB, 48 h, read-out: Anti-proliferative IC50, MCF-7. The protocol: as §1, §2
In test [11] the test system is human colon cancer cells HCT8. As to the kind of experiment: SRB anti-proliferative assay, HCT-8. Conditions: HCT-8, SRB, 48 h, read-out: Anti-proliferative IC50, HCT-8. The protocol:
as §1, §2

`N#Cc1ccc(/C=C/C(=O)c2ccccc2-c2cccc(F)c2)cc1` [compound 14, (E)-1-(3′-Fluoro[1,1′-biphenyl]-2-yl)-3-(4-cyanophenyl)prop-2-en-1-one]: the IC50 stood at 43 nM in test [1]; 375 nM in test [2]; 61 nM in test [3]; 88 nM in [4]; 65 nM in [5]; 386 nM in test [6]. The IC50 is 132 nM in test [7]; 122 nM in test [8]; 468 nM in test [9]; 128 nM in test [10]; 102 nM in test [11].
Turning to `CN(C)c1ccc(/C=C/C(=O)c2ccccc2-c2cccc(F)c2)cc1Br` [compound 15, (E)-1-(3′-Fluoro[1,1′-biphenyl]-2-yl)-3-(3-bromo-4-(Dimethylamino)phenyl)prop-2-en-1-one], the IC50 in [1] was found to be 87 nM; in test [2], 95 nM; in [3], 46 nM; in [4], 88 nM; in test [5], 44 nM; in test [6], 112 nM. For the same compound, the IC50 was 75 nM in test [7]; 89 nM in test [8]; 118 nM in test [9]; 124 nM in [10]; 99 nM in test [11].
Take `O=C(/C=C/c1ccc(N2CCCC2)cc1)c1ccccc1-c1cccc(F)c1` [compound 16, (E)-1-(3′-Fluoro[1,1′-biphenyl]-2-yl)-3-(4-pyrrolidine-1-yl)prop-2-en-1-one]: the IC50 in test [1] is 52 nM; in [2], 149 nM; in test [3], 36 nM; in test [4], 86 nM; in test [5] it was 71 nM; in test [6], 166 nM. Also, the IC50 in [7] came to 75 nM; in [8], 106 nM; in [9], 135 nM; in test [10], 106 nM; in test [11] it was 123 nM.
Turning to `O=C(/C=C/c1ccc(N(c2ccccc2)c2ccccc2)cc1)c1ccccc1-c1cccc(F)c1` [compound 17, (E)-1-(3′-Fluoro[1,1′-biphenyl]-2-yl)-3-(4-(diphenylamino)phenyl)prop-2-en-1-one], the IC50 in test [1] came out at 51 nM; in test [2] it was 158 nM; in test [3] it was 43 nM; in [4], 74 nM; in test [5], 93 nM; in test [6] it was 176 nM. The IC50 in [7] came to 66 nM; in [8], 133 nM; in test [9], 165 nM; in test [10] it was 123 nM; in [11], 137 nM.
`O=C(O)c1ccc(/C=C/C(=O)c2ccccc2-c2cccc(F)c2)cc1` [compound 18]: the IC50 came out at 47 nM in test [1]; 496 nM in test [2]; 33 nM in test [3]; 65 nM in test [4]; 23 nM in test [5]; 420 nM in test [6]. Besides, the IC50 in test [7] was determined as 38 nM; in test [8] it was 47 nM; in [9] it was 430 nM; in test [10], 116 nM; in test [11], 68 nM.
With `Nc1cccc(/C=C/C(=O)c2ccccc2-c2cccc(F)c2)c1` [compound 19, (E)-1-(3′-Fluoro[1,1′-biphenyl]-2-yl)-3-(3-aminophenyl)prop-2-en-1-one], the IC50 in [1] was 57 nM; in [2], 143 nM; in [3] it was 35 nM; in [4] it was 64 nM; in test [5] it was 34 nM; in test [6] it was 157 nM. Further, the IC50 in test [7] is 43 nM; in test [8], 38 nM; in test [9] it was 232 nM; in [10], 92 nM; in test [11], 42 nM.
For the compound `O=C(O)c1cccc(/C=C/C(=O)c2ccccc2-c2cccc(F)c2)c1` [compound 20], the IC50 in test [1] stood at 49 nM; in test [2], 120 nM; in test [3], 21 nM; in [4] it was 45 nM; in test [5], 29 nM; in [6] it was 119 nM. Besides, the IC50 in test [7] was 54 nM; in test [8], 35 nM; in test [9] it was 221 nM; in test [10], 79 nM; in test [11], 28 nM.
Consider `O=C(/C=C/c1ccc(O)c(S(=O)(=O)O)c1)c1ccccc1-c1cccc(F)c1` [compound 21, (E)-5-(3-(3′-Fluoro[1,1′-biphenyl]-2-yl)-3-oxoprop-1-en-1-yl)-2-Hydroxybenzenesulfonic acid], for which the IC50 in test [1] came to 16 nM; in [2], 123 nM; in [3], 19 nM; in [4], 18 nM; in test [5], 18 nM; in test [6], 69 nM. Also, the IC50 in [7] came to 11 nM; in [8], 16 nM; in test [9], 74 nM; in test [10], 49 nM; in [11], 20 nM.
For `O=C(/C=C/c1ccc(O)c(S(=O)(=O)O)c1)c1ccccc1-c1ccc(F)cc1` [compound 22, (E)-5-(3-(4′-Fluoro[1,1′-biphenyl]-2-yl)-3-oxoprop-1-en-1-yl)-2-Hydroxybenzenesulfonic acid], the IC50 came out at 19 nM in [1]; 136 nM in [2]; 23 nM in test [3]; 38 nM in test [4]; 20 nM in test [5]; 81 nM in [6]. Moreover, the IC50 in test [7] is 21 nM; in test [8], 39 nM; in test [9], 63 nM; in test [10], 70 nM; in test [11], 35 nM.
As to `COc1ccc(/C=C/C(=O)c2ccccc2-c2cccc(F)c2)cc1S(=O)(=O)O` [compound 23, (E)-5-(3-(3′-Fluoro[1,1′-biphenyl]-2-yl)-3-oxoprop-1-en-1-yl)-2-methoxy benzenesulfonic acid], the IC50 came to 10 nM in [1]; 53 nM in test [2]; 16 nM in test [3]; 14 nM in test [4]; 12 nM in [5]; 62 nM in test [6]. For the same compound, the IC50 came out at 3 nM in test [7]; 10 nM in test [8]; 42 nM in test [9]; 42 nM in test [10]; 12 nM in test [11].
For the compound `COc1ccc(/C=C/C(=O)c2ccccc2-c2ccc(F)cc2)cc1S(=O)(=O)O` [compound 24, (E)-5-(3-(4′-Fluoro[1,1′-biphenyl]-2-yl)-3-oxoprop-1-en-1-yl)-2-methoxy benzenesulfonic acid], the IC50 in [1] was found to be 14 nM; in [2], 61 nM; in [3], 18 nM; in test [4] it was 20 nM; in test [5], 13 nM; in test [6], 85 nM. In addition, the IC50 in test [7] was 8 nM; in test [8] it was 15 nM; in test [9], 93 nM; in test [10] it was 55 nM; in [11], 17 nM.
